Assay results published in patent US20160115196A1, “SELF-ASSEMBLED MICRO-AND NANOSTRUCTURES” (NORTHWESTERN UNIVERSITY, priority 2013, published 2016).
Where no end group is shown, it is not given here. [ ]: non-standard residue; d: D form. Dopa = N[C@@H](Cc1ccc(O)c(O)c1)C(=O)O

What was measured:
[1] = Silver reduction / silver deposition assay; conditions: silver nitrate added to pre-formed assemblies; TEM, HR-SEM or E-SEM
Method: Silver reduction assay was performed with pre-prepared Fmoc-DOPA-DOPA hydrogels at a concentration of 5 mg/mL (8.35 mM). 50 μL of 13.2 mM silver nitrate were added to 500 μL hydrogel aliquots by gentle pipetting, resulting in 1.2 mM final concentration of silver nitrate. This solution was incubated at room temperature for several days. At different time points, 10 μL aliquots were taken for TEM analysis and negative staining was not applied. To examine silver reduction using UV-vis spectroscopy, silver nitrate was added to a 5 mg/mL hydrogel pre-prepared as described above and 150 μL aliquots of Fmoc-DOPA-DOPA hydrogel with or without silver nitrate were pipetted into a 96-well UV-Star UV transparent plate (Greiner BioOne, Frickenhausen, Germany) Spectra were collected after 5 days using a Biotek Synergy HT plate reader over the range of 300-700 nm and compared to blank samples of silver nitrate only, or of the peptide only.
Peptide stock solution was diluted to a final concentration of 5 mg/ml in double distilled water. Then metal salt (AgNO3) was added to the sample and the samples were analyzed by TEM or HR-SEM. AgNO3 concentration was determined according to the final catechol concentration in the peptide, with a constant ratio of [AgNO3]/[Catechol]=0.0723.
Silver deposition was done by preparing 15 mM peptide solutions and removing residual peptide monomers. This was done by centrifugation at 12,000 RPM for 15 min, discarding the supernatant and resuspention in ultra-pure water. This procedure was repeated once more. Samples for electron microscopy were taken as control and the solution was centrifuged at 12,000 RPM for 15 min and resuspended in an aqueous solution of 2.17 mM AgNO3 for 15 min Finally, the solution was centrifuged at 9000 RPM for 10 min and resuspended in water. Samples for electron microscopy were taken again.

[2] = AFM force mapping adhesion measurements with colloidal probe (Embodiment 2); type: physicochemical; conditions: for mean adhesion force from force map histogram: tip velocity 1000 nm/s, compressive force 20 nN
Method: In an alternative embodiment, AFM analysis was performed using an Asylum MFP-1D AFM instrument (Asylum Research, Santa Barbara, Calif., USA).
The AFM measurment was performed by emploting force mapping while simultaneously providing nanoscale topographical and mechanical information about the hydrogel. Force mapping involves generating individual force curves at discrete points on a material, which are then used to calculate stiffness and height values.
(§1) After overnight incubation, 10 μL of each sample were deposited on a glass slide and dried at room temperature. Force measurements of the samples were conducted using a SiO2 colloidal probe (tip velocity 1000 nm/s, compressive force 20 nN). To investigate the glass surface area morphology after peeling, 30 μL of freshly prepared Fmoc-DOPA-DOPA-Lys solutions (12.5 mg/mL, prepared in DMSO or ethanol as described above) were deposited between two microscope glass slides. This construct was incubated overnight at room temperature under 100 mg weight Finally, the upper glass slide was peeled off and the contact area of either slide was imaged using an Ultrasharp AFM probe (NSC21/Ti-Pt, MikroMasch) operated in tapping mode.

[3] = Thermal perturbation of assemblies (temperature-dependent CD, FTIR, TEM); type: physicochemical; conditions: 0.15 mM in water, stepwise 18° C. to 90° C. and back
Method: CD spectra were collected as described above except that the spectra were obtained throughout temperature variation done in a stepwise fashion up and then down. […] (in the following steps: 25° C., 37° C., 50° C., 70° C., 90° C., 70° C., 50° C., 37° C., 25° C.). The sample was allowed to equilibrate for 10 min and the temperature was monitored by a thermocouple in the cuvette holder block. At the end of the measurments, the cuvette content was sampled for TEM and FTIR analysis as described above. As control, TEM and FTIR samples were taken from an aliquot of the same solution which was not subjected to temperature variations.

[4] = Rheological measurements of in situ-formed hydrogel; type: physicochemical; conditions: 5 mg/mL
Method: Rheological measurements for in situ-formed Fmoc-DOPA-DOPA hydrogel were performed using an AR-G2 rheometer (TA Instruments, New Castle, Del., USA). Time-sweep oscillatory tests in 20 mm parallel plate geometry were conducted at 0.7% strain and 1 Hz frequency on 200 μL of fresh solution (resulting in a gap size of about 0.6 mm), 1 min after its preparation. In order to determine the linear viscoelastic region oscillatory strain (0.01-100%) and frequency sweep (0.01-100 Hz) tests were conducted 45 min after diluting the stock solution with Milli-Q water. All rheology tests were done in triplicates and averaged.

[5] = Macroscopic adhesion of two glass slides and peeling; type: physicochemical; conditions: prepared in ethanol or DMSO
Method: as §1

3,4-dihydroxyphenyl-L-alanine-(3,4-dihydroxyphenyl-L-alanine) [DOPA-DOPA]
reduction of ionic silver / silver deposition on assemblies [1]: formation of silver particles

O=C(N[C@@H](Cc1ccc(O)c(O)c1)C(=O)O)OCC1c2ccccc2-c2ccccc21 [Fmoc-DOPA]
mean adhesion force from force map histogram ([2]; 1 mg/ml in 1% ethanol, one day of assembly): 31±10.6 nN

D[Dopa]NK[Dopa]
reduction of ionic silver / silver deposition on assemblies [1]: possess the ability to reduce ionic silver | stability of the ultrastructure to elevated temperature [3]: ultrastructure is impaired by elevated temperatures

Fmoc-DOPA-DOPA
reduction of ionic silver / silver deposition on assemblies [1]: seamless coating of the peptide assemblies was clearly observed | storage modulus at 25° C. or 37° C. relative to hydrogels formed at 4° C. [4]: approximately 40 fold | storage modulus (G′) versus loss modulus (G″) in the linear region ([4]; 25° C.): more than one order of magnitude larger than the loss modulus | mean adhesion force from force map histogram ([2]; 5 mg/ml in 5% ethanol): 36±11 nN

Fmoc-DOPA-DOPA-Lys
macroscopic adhesive properties [5]: capable of gluing together two glass slides | adhesion force (force map) ([2]; 1.25 wt% (12.5 mg/mL) prepared in 12.5% DMSO and water): > 300 nN | adhesion force (force map) ([2]; 1.25 wt% (12.5 mg/mL) prepared in 12.5% ethanol and water): more than 214 nN
